Source: patent publication US5102891A, “1-(substituted pyridinylamino)-1H-indol-5-yl substituted carbamates” (priority 1990, dated 1992)
Like-named read-outs stand apart in the source and are kept apart here.

How the values were obtained:
[1] = molecular target: T1, Acetylcholinesterase (AChE) (Rattus norvegicus, UniProt P37136); test: biochemical; conditions: rat striatum homogenate, 10 min preincubation at 37° C., pH 7.2, acetylthiocholine 5 mM final; read-out: Inhibitory Concentration Brain AChE
T1 construct: corpora striata dissected free, weighed and homogenized in 19 volumes; from tissue; host or cells: corpora striata of male Wistar rats, whole homogenate
T1 sequence (P37136 32-614): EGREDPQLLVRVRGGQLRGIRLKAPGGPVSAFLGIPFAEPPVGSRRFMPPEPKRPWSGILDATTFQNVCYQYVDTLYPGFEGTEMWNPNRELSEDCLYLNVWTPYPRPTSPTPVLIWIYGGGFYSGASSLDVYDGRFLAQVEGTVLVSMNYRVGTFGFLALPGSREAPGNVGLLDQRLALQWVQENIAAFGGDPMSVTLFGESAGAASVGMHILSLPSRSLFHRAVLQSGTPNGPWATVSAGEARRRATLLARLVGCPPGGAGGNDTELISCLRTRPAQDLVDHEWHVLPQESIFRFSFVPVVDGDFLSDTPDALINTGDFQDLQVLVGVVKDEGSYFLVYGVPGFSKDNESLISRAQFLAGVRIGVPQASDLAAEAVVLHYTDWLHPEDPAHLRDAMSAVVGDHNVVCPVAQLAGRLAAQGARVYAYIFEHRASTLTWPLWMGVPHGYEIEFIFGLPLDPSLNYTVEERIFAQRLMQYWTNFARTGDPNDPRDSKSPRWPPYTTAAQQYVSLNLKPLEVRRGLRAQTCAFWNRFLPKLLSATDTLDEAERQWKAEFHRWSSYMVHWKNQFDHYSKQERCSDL
Procedure: Cholinesterases are found throughout the body, both in the brain and in serum. However, only brain acetylcholinesterase (AChE) distribution is correlated with central cholinergic innervation.
The method described below was used in this invention for assaying cholinesterase activity.
1. 0.05M Phosphate buffer, pH 7.2
(c) add (a) to (b) until pH reaches 7.2
4. A 2 mM stock solution of the test drug is made up in a suitable solvent and q.s. to volume with 0.5 mM DTNB (reagent 3). Drugs are serially diluted (1:10) such that the final concentration (in cuvette) is 10^-4 M and screened for activity. If active, IC50 values are determined from the inhibitory activity of subsequent concentrations.
Male Wistar rats are decapitated, brains rapidly removed, corpora striata dissected free, weighed and homogenized in 19 volumes (approximately 7 mg protein/ml) of 0.05M phosphate buffer, pH 7.2 using a Potter-Elvehjem homogenizer. […]
Enzyme activity is measured with the Beckman DU-50 spectrophotometer. […]
Blank values are determined for each run to control for non-enzymatic hydrolysis of substrate and these values are automatically subtracted by the kindata program available on kinetics soft-pac module. This program also calculates the rate of absorbance change for each cuvette. […]

[2] = test system: Scopolamine Induced Memory Deficit; assay type: in vivo, mice
Procedure: In this assay mice are tested for their ability to remember an unpleasant stimulus for a period of 24 hours. A mouse is placed in a chamber that contains a dark compartment; a strong incandescent light drives it to the dark compartment, where an electric shock is administered through metal plates on the floor. The animal is removed from the testing apparatus and tested again, 24 hours later, for the ability to remember the electric shock.
If scopolamine, an anticholinergic that is known to cause memory impairment, is administered before an animal's initial exposure to the test chamber, the animal re-enters the dark compartment shortly after being placed in the test chamber 24 hours later. This effect of scopolamine is blocked by an active test compound, resulting in a greater interval before re-entry into the dark compartment.
The results for an active compound are expressed as the percent of a group of animals in which the effect of scopolamine is blocked, as manifested by an increased interval between being placed in the test chamber and re-entering the dark compartment.

CCCN(c1ccncc1)n1ccc2cc(OC(=O)NC)ccc21 [1-(Propyl-4-pyridinylamino)-1H-indol-5-yl methylcarbamate]
IC50 [1]: 0.0023 µM
% of Animals with Scopolamine Induced Memory Deficit Reversal ([2]; mice, 0.35 mg/kg of body weight, s.c., retest 24 hours): 21%

CCCN(c1ccncc1)n1ccc2cc(OC(=O)N[C@@H](C)c3ccccc3)ccc21 [(S)-(-)-1-(Propyl-4-pyridinylamino)-1H-indol-5-yl 1-phenylethylcarbamate]
IC50 [1]: 30.2 µM

CC[C@@H]1C(=O)OC[C@@H]1Cc1cncn1C [Pilocarpine]
% of Animals with Scopolamine Induced Memory Deficit Reversal ([2]; mice, 5.0 mg/kg of body weight, s.c., retest 24 hours): 13%

Nc1c2c(nc3ccccc13)CCCC2 [Tacrine]
% of Animals with Scopolamine Induced Memory Deficit Reversal ([2]; mouse, in vivo, sc, 0.63 mg/kg): 13%
